pIC50: −log10 of the molar value.
Assays:
MCF-7 cells [1] = test: Cell growth assay, cell counting on Coulter Counter ZM; type: cell-based, human
Experimental: The MCF-7 tumor line is a line of estrogen-sensitive epithelial cells originating from pleural metastases of an infiltrating ductule breast adenocarcinoma. They are cultured in Dulbecco's Modified Eagle Medium (DMEM), supplemented with 10% of fetal calf serum (FCS), 1% of glutamine and 1% of sodium pyruvate. The cells are stored in cryotubes in frozen form in liquid nitrogen. The cryotubes are partially thawed in a water bath at 37° C. 2 ml of complete culture medium are added and the cell suspension is then mixed. Culture flasks (COSTAR® T25) are prepared with culture medium beforehand. The cell suspension is added to the flasks and placed in an incubator at 37° C. with 5% of CO2.
Cells sampled in the exponential growth phase are seeded in 24-well plates in a proportion of 15000 cells per ml and per well, this being in a DMEM medium supplemented with 10% FCS, 1% of sodium pyruvate and 1% of glutamine.
After incubation for 24 hours, the various concentrations of products to be tested are added in the proportion of 4 wells per concentration. These products are diluted in a DMEM medium containing 2% of FCS, 1% of sodium pyruvate and 1% of glutamine, so as to obtain the desired concentrations. The negative control is prepared without the addition of product.
After incubation for 72 hours, the cells are detached and then counted using a Coulter Counter ZM® set on the parameters predefined for MCF-7 cells. The diameter (threshold) of detection is 5 for an attenuation of 32. The latter determines the number of particles of desired diameter contained in the sample. By taking into account the dilution made, the number of cells per ml of initial cell suspension is determined from this value.
%I=[1−(net increase in treated cells/net increase in untreated cells)]×100
The net increase in untreated cells corresponds to the number of cells contained in the control wells (DMEM medium containing 2% FCS) subtracted with the number of cells at D0 (number of cells at the time the products are added to the wells). […]

MCF-7 cells [2] = test: MTT growth assay; type: cell-based, human
Experimental: MTT (3-(4,5-dimethylthiazol-2-yl)-2,5-diphenyl-tetrazolium bromide) has the property that it can be reduced in alkaline medium, thus giving a colored compound, blue formazan. Mitochondria, by virtue of their membrane-bound dehydrogenases, are capable of carrying out this reduction. As a result, the number of functional mitochondria, and indirectly the number of live cells, can be quantified as a function of the intensity of the coloration.
(§1) Cells sampled in the exponential growth phase are seeded in 96-well plates in a proportion of 5 000 cells per 200 μl, this being in a DMEM medium supplemented with 2% of FCS, 1% of glutamine and 1% of sodium pyruvate. After incubation for 24 hours, the various concentrations of products to be tested are added in a proportion of 3 wells per concentration. A negative control is prepared without the addition of product.
(§2) After incubation for 72 hours, the cells are washed twice with a buffered saline solution and then 100 μl of MTT are added to each well. After 4 hours of incubation, 100 μl of DMSO are added to the wells before reading the plate 570 nm using a plate reader.
The percentage inhibition I is determined using the equation previously described. The net increase in untreated cells this time corresponds to the cell density contained in the control wells minus that of D0. […]

MCF-7ras cells [3] = test: MTT growth assay with isobolic combination index; type: cell-based, human; conditions: for NaPA Bc / NaPA Be: used alone
Experimental: as §1, §2
The percentage inhibition I is determined using the equation previously described. The net increase in untreated cells this time corresponds to the cell density contained in the control wells minus that of D0. As regards the net increase in treated cells, it corresponds to the treated cell density at D72 subtracted with that of D0.
MCF-7 cells transfected with the Ha-ras oncogene (MCF-7ras cells) were cultured in DMEM medium supplemented with 10% of FCS, 2 mM of L-glutamine, 1 mM of sodium pyruvate, 50 units/ml of penicillin and 50 μg/ml of streptomycin, at a temperature of 37° C. and in a humid atmosphere with 5% of CO2.
This was carried out in 96-well microplates under the same conditions as those given above in example 17.
In this example, the effects of the following products, alone or in combination, at various concentrations, were studied on MCF-7ras cell proliferation after incubation for 72 hours:
The percentage inhibition I was calculated as described above in example 17.
The effect of synergy between the dextrans DMCB7 or LS4 DMCB or LS17 and NaPA was calculated using the following isobolic equation (T. Mosmann, J. Immunol. Methods, 1983, 65, 55-63): […]
in which Ac and Bc correspond, respectively, to the concentration of dextran derivative and NaPA used in combination, and Ae and Be correspond to the concentration of each of these two compounds used alone and inducing the same effect; D is the combination index and Dm is the mean combination index. When D or Dm is less than 1, then the combination of the two products has a synergistic effect.
When the concentration of dextran derivative used alone (Ae), making it possible to obtain a percentage inhibition close to that which is obtained when the dextran derivative is used in combination with NaPA, is very high and such that it cannot be determined precisely, then the ratio Ac/Ae tends toward zero and, consequently, D=Bc/Be. Such concentrations of dextran derivatives (Ae) have been indicated in tables II, III and IV below as simply being greater than the concentration given for Ac.
Each experiment was repeated 3 times so as to be able to calculate the statistical significance (P) of the combination index (D or Dm) compared to the additive combination index for the effects (D=1) using the Student's t test.

MCF-7ras cells [4] = test: Cell cycle analysis (BrdU/propidium iodide, FACScan); type: cell-based, human; conditions: NaPA alone 10 mM, 48 hours
Experimental: To analyze the cell cycle, the cells were seeded in plates in a proportion of […] and per well in DMEM medium supplemented with 2% of FCS. After culturing for 24 hours, the various tested products were added.
After 72 hours, the MCF-7ras cells were incubated in the presence of BrdU for 4 hours. The cells were then washed with PBS buffer and fixed with 70% ethanol. […] The cells were then centrifuged and resuspended in a staining solution containing […] of propidium iodide (Boehringer Mannheim) for 10 min. The stained cells are then analyzed with a FACScan (Coulter).
Analysis of the distribution of MCF-7ras cells treated with NaPA alone (10 mM), the dextran LS4 DMCB alone (18.5 mM) and a combination thereof (NaPA: 10 mM; LS4 DMCB: 18.5 mM) in the various phases of the cell cycle was carried out after 48 hours of treatment.

MCF-7ras tumors = test: Antitumor effect in vivo, tumors induced by inoculation of MCF-7ras cells in athymic mice; conditions: NaPA 40 mg/kg, injected twice a week, after 7 weeks of treatment; P=0.049
Experimental: Fifty 3-week-old female athymic mice from the Laboratoire Harlan (Gannat, France) were kept in a temperature-controlled room and subjected to a cycle of light/dark alternating every 12 hours.
Cells of the MCF-7ras tumor line as described above in example 17 were cultured in a DMEM medium supplemented with 10% of FCS until 80% confluency was reached. After centrifugation, the cells were resuspended in DMEM supplemented with 10% of FCS.
Each mouse was then inoculated subcutaneously with these cells, in the proximity of the mammary gland, in a proportion of 5×10^6 cells per animal.
The volume of the tumors (V) was calculated in the following way:
V=(4/3)π(r1)^2)r2); r1 representing the smallest radius of the tumor and r2 the largest radius of the tumor.
Four weeks after inoculation, solutions of NaPA (40 mg/kg) or of dextran LS4 DMCB (150 mg/kg) or of a combination of NaPA (40 mg/kg) and dextran LS4 DMCB (150 mg/kg), prepared in 0.1 ml of sodium chloride, were injected into the mice, twice a week, for 7 weeks for the solutions of NaPA alone and of dextran LS4 DMCB alone. The injections of the combination of NaPA and dextran LS4 DMCB were stopped after six weeks.
For each solution tested, 10 mice chosen randomly from the 50 mice initially inoculated were subjected to the treatment. […]
The volume of each tumor was measured once a week. […]

[5] = test system: 1205LU human melanoma cells; test: Antitumor effect in vivo, 1205LU human melanoma in athymic mice
Experimental: A group of 14 female athymic mice were subcutaneously inoculated, according to the protocol described above in example 17, with 1205LU human melanoma cells, in a proportion of 10^6 cells per animal.
For a period of five weeks, and at a rate of twice a week, a first group of 4 mice were given an injection of 100 μl of sodium chloride so as to serve as a control group, a second group of 4 mice were given an injection of LS17-NaPAC at a dose of 60 mg/kg/100 μl, and a third group of 6 mice were given an injection of NaPA at a dose of 6.9 mg/kg/100 μl.
The volume of each tumor was measured before the first injection and then once a week for the five weeks of treatment. It was calculated according to the equation defined above in example 17.
Furthermore, at the end of treatment, the mice were sacrificed so as to be able to determine the mass of each of the tumors. […] The treatment with NaPA alone at a dose of 6.9 mg/kg therefore appears to be nonsignificant, contrary to that with LS17-NaPAC at an equivalent dose of 60 mg/kg (p<0.005).

HUVEC cells = test: HUVEC cell proliferation (MTT), antiangiogenic activity in vitro; type: cell-based; conditions: tested alone at concentrations equivalent to LS17-NaPAC, 72 hours
Experimental: Immortalized healthy endothelial cells (HUVEC) were seeded in a proportion of 10000 cells per well and per 100 μl of DMEM medium supplemented with 2% of FCS, in 96-well microplates (COSTAR®). The number of cells was determined after having prepared a standard range.
After culturing for 24 hours, the HUVEC cells were incubated with the various concentrations of the products to be tested prepared in DMEM medium containing 2% of FCS. The absorbance at the time the products were added was measured and compared to the standard range, so as to determine the number of cells.
After culturing for 72 hours, the cell supernatant is removed and 1 wash with PBS buffer containing calcium and magnesium is carried out. 100 μl of a solution of MTT is then added and the cells are incubated for 4 hours. After 4 hours of incubation, the MTT is removed and the crystals which have formed are dissolved with DMSO for 10 minutes with agitation. Absorbance is measured at 570 nm.
The concentration of 10 μg/ml of LS17-NaPAC tested is compared to a concentration of NaPA alone of 1.3216 μg/ml or to a concentration of 8.7 μg/ml of LS17-DMCB alone.

O=C([O-])Cc1ccccc1.[Na+] [NaPA, sodium phenylacetate]
pIC50 (MCF-7 cells [1]; Homo sapiens, MCF7, 72 h, read-out: IC50 (minimum dose causing arrest of proliferation of 50% of cells)): 2.30 | inhibition of cell proliferation (MCF-7 cells [1]; concentrations greater than 30 mM, reflects cytotoxic effect): exceeds 100% | concentration of NaPA alone giving this inhibition (MCF-7 cells [1]; same inhibition as maximum effect of NaPAC MF6): 50 mM | effect on MCF-7 cells (MCF-7 cells [2]; concentrations less than 1 mM, MTT): does not appear to have a significant effect | concentration of free NaPA giving this same inhibition (MCF-7 cells [2]; same inhibition (40 to 50%) as the combination): 5 mM | inhibition of MCF-7ras cell proliferation (MCF-7ras cells [3]; NaPA alone at 30 and 40 mM, 72 h): 70% | NaPA Bc (MCF-7ras cells [3]; same effect as DMCB7 0.05 mM + NaPA 5 mM (10% inhibition)): 1 mM | NaPA Bc (MCF-7ras cells [3]; same effect as DMCB7 0.3 mM + NaPA 5 mM (20% inhibition)): 5 mM | NaPA Bc (MCF-7ras cells [3]; same effect as DMCB7 1 mM + NaPA 5 mM (38% inhibition)): 10.7 mM | NaPA Bc (MCF-7ras cells [3]; same effect as DMCB7 1.27 mM + NaPA 5 mM (42% inhibition)): 12 mM | NaPA Bc (MCF-7ras cells [3]; same effect as DMCB7 1.7 mM + NaPA 5 mM (45% inhibition)): 13 mM | NaPA Bc (MCF-7ras cells [3]; same effect as DMCB7 2 mM + NaPA 5 mM (50% inhibition)): 20 mM | NaPA Bc (MCF-7ras cells [3]; same effect as DMCB7 5 mM + NaPA 5 mM (60% inhibition)): 29 mM | NaPA Bc (MCF-7ras cells [3]; same effect as DMCB7 7 mM + NaPA 5 mM (70% inhibition)): 36 mM | NaPA Bc (MCF-7ras cells [3]; same effect as LS4 3.7 mM + NaPA 0.75 mM (51.4% inhibition)): 22 mM | NaPA Bc (MCF-7ras cells [3]; same effect as LS4 7.4 mM + NaPA 1.5 mM (54.8% inhibition)): 23 mM | NaPA Bc (MCF-7ras cells [3]; same effect as LS4 14.8 mM + NaPA 3 mM (55% inhibition)): 23.3 mM | NaPA Bc (MCF-7ras cells [3]; same effect as LS4 18.5 mM + NaPA 4 mM (60.2% inhibition)): 29.3 mM | NaPA Be (MCF-7ras cells [3]; same effect as LS17 1.53 mM + NaPA 0.5 mM (0% inhibition)): 0 mM | NaPA Be (MCF-7ras cells [3]; same effect as LS17 3 mM + NaPA 1 mM (16% inhibition)): 0.76 mM | NaPA Be (MCF-7ras cells [3]; same effect as LS17 6 mM + NaPA 2 mM (17.3% inhibition)): 0.83 mM | NaPA Be (MCF-7ras cells [3]; same effect as LS17 12 mM + NaPA 4 mM (17.3% inhibition)): 0.83 mM | distribution of cells in the phases of the cell cycle (MCF-7ras cells [4]): blocking of the cells in the G0/G1 phase | inhibition of tumor cell growth (MCF-7ras tumors): 59% | mass of the tumors vs untreated mice ([5]; NaPA 6.9 mg/kg, end of treatment): no significant difference | effect on tumor growth (tumor volume) ([5]; NaPA 6.9 mg/kg/100 μl, twice a week, five weeks): does not appear to have a significant effect | inhibitory effect on HUVEC cell proliferation (HUVEC cells): do not appear to exhibit an inhibitory effect

Reference: patent US20030171333A1, “Pharmaceutical composition containing at least a polymer combined with or conjugated to at least a phenylalkylcarboxylic acid salt, conjugate polymers and uses thereof” (priority 2000, published 2003)
